Assay results published in US20060020014A1, “Method for treating nervous system disorders and conditions” (Wyeth, priority 2004, published 2006).
Values joined by “and” are separate entries in the source; they are usually repeats but may differ in a detail not shown here. Equal values may be shown once.

Experiments:
[1] = test system: SNL rats, tactile allodynia; assay: Spinal nerve ligation (SNL) model of neuropathic pain, tactile hypersensitivity (von Frey); type: in vivo, rat; details: 30 mg/kg IP, 30-300 minutes after administration
Description: Subjects. Male Sprague-Dawley rats (Indianapolis, Ind.) weighing 150 to 200 g at time of arrival, were individually housed in wire cages in a climate-controlled room. A 12-hour light/dark cycle (lights on at 0630) was in effect, and food and water were available ad libitum.
Surgery—Spinal Nerve Ligation. Rats were anesthetized with 3.5% halothane in O2 at 1 L/min and maintained with 1.5% halothane in O2 during surgery. Ligation of the L5 and L6 nerves was produced by an incision through the left paraspinal muscles. The left L5 and L6 spinal nerves were isolated adjacent to the vertebral column and ligated tightly with 6-0 silk suture just distal to the dorsal root ganglion. The wound was closed in layers using 4-0 silk suture and wound clips. Testing began 7 days after surgery.
Assessment of tactile hypersensitivity. […] Baseline tactile sensitivity was assessed using a series of calibrated von Frey monofilaments (Stoelting; Wood Dale, Ill.) 0 to 3 days before surgery. […] The ability of a single dose of test compound to reverse established hypersensitivity was assessed using a time course procedure. […]
Results are presented as the 50% threshold values (50% threshold in g force) estimated by the Dixon non-parametric test. […] Significant main effects were analyzed further by subsequent least significant difference analysis. […]

[2] = target: human norepinephrine transporter (hNET) (Homo sapiens, UniProt P23975); assay: cell-based; details: hNET function uptake (EC50 in nm), MDCK-Net6 cells, [3H]NE uptake
Procedure: Test compounds were prepared in DMSO (10 mM) and diluted in assay buffer according to test range (1 to 10,000 nM). Twenty-five microliters of assay buffer (maximum NE uptake) or test compound were added directly to triplicate wells containing cells in 200 μl of assay buffer. […] To initiate the NE uptake, [^3H]NE diluted in assay buffer (120 nM final assay concentration) was delivered in 25 μl aliquots to each well and the plates were incubated for 5 minutes (37° C.).

[3] = target: T1, human serotonin transporter (hSERT) (Homo sapiens, UniProt P31645); assay: Serotonin (5-HT) uptake assay in JAR cells (hSERT function uptake); type: cell-based; details: [3H]5-HT uptake
T1 construct: The methods for 5-HT functional reuptake using the JAR cell line were modified using a previous literature report; host or cells: JAR (human placental choriocarcinoma), staurosporine-stimulated
Procedure: The methods for 5-HT functional reuptake using the JAR cell line were modified using a previous literature report. […] On day 2, cells were stimulated with staurosporine (40 nM) to increase the expression of the 5-HT transporter. On day 3, cells were removed from the cell incubator two hours prior to assay and maintained at room temperature to equilibrate the growth medium to ambient oxygen concentration. […] Twenty-five microliters of assay buffer (maximum 5-HT uptake) or test compound were added directly to triplicate wells containing cells in 200 μl of assay buffer. The cells were incubated with the compound for 10 minutes (37° C.). […] The cells were incubated with the reaction mixture for 5 minutes at 37° C. The 5-HT uptake reaction was terminated by decanting the assay buffer.

[4] = target: hNET (Homo sapiens, UniProt P23975); assay: hNET binding
[5] = target: hSERT (Homo sapiens, UniProt P31645); assay: hSERT binding
[6] = test system: OVX rats, tail skin temperature (TST); assay: Telemetry rat model of ovariectomy-induced thermoregulatory dysfunction (tail skin temperature); type: in vivo; details: 30 mg/kg sc; for Duration: duration of effect on TST; for Onset: onset of action on TST
Description: This model has been modified from a previously reported protocol describing estrogen regulation of diurnal tail skin temperature (TST) patterns (Berendsen, et al., European Journal of Pharmacology, 2001, 419(1): 47-54). […] A temperature and physical activity transmitter (PhysioTel TA10TA-F40, Data Sciences International) was implanted subcutaneously in the dorsal scapular region and the tip of the temperature probe was tunneled subcutaneously 2.5 cm beyond the base of the tail. After a 7-day recovery period, TST readings were continuously recorded for the remainder of the study. Tail skin temperature readings were collected from each animal every 5 minutes with values obtained over a 10 second sampling period. The day before test day, an average baseline TST value was calculated for each animal by averaging temperature readings recorded during the 12 hour active (dark) phase. In these studies, animals were dosed approximately 40 minutes prior to the onset of dark cycle.
Statistical analysis: Evaluation of a compound's ability to restore normal lowering of TST in the telemetry model was analyzed using hourly TST values calculated for each animal by averaging the 12 temperature readings obtained every 5 minutes over that recording time. To analyze ΔTST in the telemetry model, a two factors repeated measure ANOVA was performed. The model used for analysis was ΔTST=GRP (group)+HR (hours)+GRP*HR+BASELINE. Thus, the reported least squares means are the expected mean values as if both groups had the same baseline value. Post-hoc tests of hourly GRP*HR samples are t-tests of the difference between groups for each hour. To be conservative, a result was not considered significant unless the p-value was <0.025. All analyses were performed using SAS PROC MIXED (SAS, Carey, N.C.).
Rats were injected subcutaneously with vehicle (2%Tween/0.5% methylcellulose) or 30 mg/kg, sc test compound dissolved in 2%Tween/0.5% methylcellulose. The effect of test compound is measured by evaluating the following parameters in this model: onset of action, duration of effect on TST, maximal change in TST and mean change in TST over the duration of the compound effect.

[7] = test system: OVX rats, tail skin temperature (TST); assay: as above; type: in vivo; details: 30 mg/kg, sc; p<0.05 compared to vehicle control

Sequence of human norepinephrine transporter (hNET) (P23975 whole entry): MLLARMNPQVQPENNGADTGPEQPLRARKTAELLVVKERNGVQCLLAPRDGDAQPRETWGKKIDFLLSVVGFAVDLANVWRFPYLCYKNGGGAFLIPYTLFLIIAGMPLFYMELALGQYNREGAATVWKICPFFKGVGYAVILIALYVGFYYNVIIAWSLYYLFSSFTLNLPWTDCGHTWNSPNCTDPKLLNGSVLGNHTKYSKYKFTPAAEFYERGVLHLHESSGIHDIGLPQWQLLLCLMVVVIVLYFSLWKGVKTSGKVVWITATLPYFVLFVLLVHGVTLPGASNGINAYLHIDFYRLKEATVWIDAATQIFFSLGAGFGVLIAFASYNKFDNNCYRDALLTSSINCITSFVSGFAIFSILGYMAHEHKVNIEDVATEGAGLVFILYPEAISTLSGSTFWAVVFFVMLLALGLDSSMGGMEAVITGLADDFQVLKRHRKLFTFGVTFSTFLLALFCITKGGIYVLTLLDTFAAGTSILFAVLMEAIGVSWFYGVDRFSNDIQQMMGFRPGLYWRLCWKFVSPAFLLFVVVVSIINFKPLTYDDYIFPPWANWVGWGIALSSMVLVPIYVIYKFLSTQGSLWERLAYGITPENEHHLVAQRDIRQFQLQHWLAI
Sequence of hNET (P23975 whole entry): as above
T1 sequence (P31645 whole entry): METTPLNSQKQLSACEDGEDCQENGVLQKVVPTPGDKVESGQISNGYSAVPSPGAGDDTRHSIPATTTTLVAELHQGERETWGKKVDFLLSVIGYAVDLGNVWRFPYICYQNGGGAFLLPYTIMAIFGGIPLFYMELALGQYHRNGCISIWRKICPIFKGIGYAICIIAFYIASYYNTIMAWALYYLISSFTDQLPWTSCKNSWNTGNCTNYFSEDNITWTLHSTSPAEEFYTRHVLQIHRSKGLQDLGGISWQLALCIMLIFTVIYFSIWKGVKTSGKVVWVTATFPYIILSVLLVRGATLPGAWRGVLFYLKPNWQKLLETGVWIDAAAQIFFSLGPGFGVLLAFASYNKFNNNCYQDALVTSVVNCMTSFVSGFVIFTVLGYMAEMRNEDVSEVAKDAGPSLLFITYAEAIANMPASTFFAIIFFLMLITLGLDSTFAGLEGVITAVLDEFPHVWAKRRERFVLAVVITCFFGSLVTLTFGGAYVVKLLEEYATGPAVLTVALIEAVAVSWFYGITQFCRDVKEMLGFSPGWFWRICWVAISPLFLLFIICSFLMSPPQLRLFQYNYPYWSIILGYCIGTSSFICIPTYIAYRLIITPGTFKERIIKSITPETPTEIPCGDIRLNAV
Sequence of hSERT (P31645 whole entry): as above

Row | SMILES | Reversal of tactile allodynia in the SNL neuropathic pain model [1] | EC50 [2] | EC50 [3] [nM] | hNET binding (% I @ 1 μM) [4] [% I] | hSERT binding (% I @ 1 μM) [5] [% I] | Activity Index [6] [h] | Duration [6] [h] | Onset [6] [h] | Restoration of normal TST in OVX-induced thermoregulatory dysfunction telemetry model [7]
1 | Clc1ccc(C23CNCC2C3)cc1Cl (racemic) [Racemic 1-(3,4-dichlorophenyl)-3-azabicyclo[3.1.0]hexane, 1-(3,4-dichlorophenyl)-3-azabicyclo[3.1.0]hexane] | significantly reverses tactile allodynia | – | – | – | – | – | – | – | –
2 | Cc1ccc(C23CNCC2C3)cc1 (racemic) [Racemic 1-(4-methylphenyl)-3-azabicyclo[3.1.0]hexane, 1-(4-methylphenyl)-3-azabicyclo[3.1.0]hexane] | – | 265 nM and 426 nM | 736 | 71.8 | 42.8 | -10.6 | 3.5 | 0.5 | restores normal TST
3 | Cc1ccc(C23CNCC2C3)cc1 (single isomer, unassigned; (+)) [(+)-1-(4-methylphenyl)-3-azabicyclo[3.1.0]hexane] | – | – | – | – | – | -2.99 | 3.5 | 0.5 | restores normal TST
